Results taken from ChEMBL document CHEMBL1123600, “N6-(2,2-diphenylethyl)adenosine, a novel adenosine receptor agonist with antipsychotic-like activity” (J Med Chem, 1987).

Key:
[1] = target: Adenosine A2 receptor (Rattus norvegicus, UniProt P29276+P30543)
Description: Binding affinity to A2 adenosine receptor in rat striatal membranes by [3H]NECA (1-(6-amino-9H-purin-9-yl)-1-deoxy-N-ethyl-beta-D-ribofuranuronamide) displacement.

[2] = system: Mus musculus; test: Effect on Motor activity in mouse following i.p. administration.; type: functional; conditions: ip
[3] = system: Mus musculus; test: Effect on Ataxia in mouse following i.p. administration.; type: functional; conditions: ip
[4] = target: T1, Adenosine receptor A1 (Rattus norvegicus, UniProt P25099)
T1 sequence (P25099 whole entry): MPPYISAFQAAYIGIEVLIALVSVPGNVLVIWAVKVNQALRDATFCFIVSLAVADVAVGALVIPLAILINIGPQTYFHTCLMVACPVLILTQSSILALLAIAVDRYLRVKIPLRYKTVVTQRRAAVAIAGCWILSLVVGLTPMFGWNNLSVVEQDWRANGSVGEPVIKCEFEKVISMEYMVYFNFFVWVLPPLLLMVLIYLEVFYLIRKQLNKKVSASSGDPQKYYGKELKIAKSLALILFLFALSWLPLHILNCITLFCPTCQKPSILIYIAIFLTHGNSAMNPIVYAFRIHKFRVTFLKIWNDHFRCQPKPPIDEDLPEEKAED
Description: Binding affinity to adenosine A1 receptor in rat whole brain membranes by [3H]N6-cyclohexyladenosine displacement.

[5] = system: Rattus norvegicus; test: Effect on Motor activity(MA) in rat was measured as ED50 by perorally administration of compound.; type: functional; conditions: po
[6] = species: Rattus norvegicus; test: Effect on Sidman conditioned avoidance in rat.; type: functional
[7] = system: Rattus norvegicus; test: Effect on Ataxia(ATX) in rat was measured as ED50 by perorally administration of compound.; type: functional; conditions: po

## OC[C@H]1O[C@@H](n2cnc3c(NCc4ccccc4)ncnc32)[C@H](O)[C@@H]1O [N6-BENZYLADENOSINE]
[1]
  Ki: 280 nM
[2]
  ED50: 22 mg/kg
[3]
  ED50: > 100 mg/kg

## CC(C)(CNc1ncnc2c1ncn2C1O[C@H](CO)[C@@H](O)[C@H]1O)c1ccccc1 (stereo partly specified)
[1]
  Ki: 320 nM
[2]
  ED50: 6.7 mg/kg
[3]
  ED50: 30 mg/kg
[4]
  Ki: 16.2 nM

## OC[C@H]1OC(n2cnc3c(NCCCCC(c4ccccc4)c4ccccc4)ncnc32)[C@H](O)[C@@H]1O (stereo partly specified)
[1]
  Ki: 2200 nM
[2]
  ED50: 30 mg/kg
[3]
  ED50: > 100 mg/kg
[4]
  Ki: 146 nM

## OC[C@H]1OC(n2cnc3c(NCC(c4ccccc4)(c4ccccc4)c4ccccc4)ncnc32)[C@H](O)[C@@H]1O (stereo partly specified)
[1]
  Ki: 26000 nM
[2]
  ED50: 80 mg/kg
[3]
  ED50: > 100 mg/kg
[4]
  Ki: 14300 nM

## OC[C@H]1O[C@@H](n2cnc3c(NCC(c4ccccc4)c4ccccc4)ncnc32)[C@H](O)[C@@H]1O
[1]
  Ki: 25 nM
[5]
  ED50: 2.2 mg/kg
[6]
  ED50: 2.5 mg/kg
[2]
  ED50: 1.3 mg/kg
[7]
  ED50: 31 mg/kg
[3]
  ED50: 145 mg/kg
[4]
  Ki: 6.8 nM

## CSc1ccc2c(c1)N(CCC1CCCCN1C)c1ccccc1S2 (stereo unspecified) [THIORIDAZINE]
[5]
  ED50: 13.3 mg/kg
[6]
  ED50: 19.7 mg/kg
[2]
  ED50: 3.3 mg/kg
[7]
  ED50: > 30 mg/kg
[3]
  ED50: 13 mg/kg

## CC(CNc1ncnc2c1ncn2C1O[C@H](CO)[C@@H](O)[C@H]1O)(c1ccccc1)c1ccccc1 (stereo partly specified)
[1]
  Ki: 30 nM
[2]
  ED50: 7 mg/kg
[3]
  ED50: > 100 mg/kg
[4]
  Ki: 37 nM

## OC[C@H]1OC(n2cnc3c(NC(c4ccccc4)c4ccccc4)ncnc32)[C@H](O)[C@@H]1O (stereo partly specified)
[1]
  Ki: 3800 nM
[2]
  ED50: 80 mg/kg
[3]
  ED50: > 100 mg/kg
[4]
  Ki: 480 nM

## OC[C@H]1O[C@@H](n2cnc3c(Nc4ccccc4)ncnc32)[C@H](O)[C@@H]1O [N6-PHENYLADENOSINE]
[1]
  Ki: 660 nM
[2]
  ED50: 25 mg/kg
[3]
  ED50: 30 mg/kg
[4]
  Ki: 4.6 nM

## OC[C@H]1OC(n2cnc3c(NCCC(c4ccccc4)c4ccccc4)ncnc32)[C@H](O)[C@@H]1O (stereo partly specified)
[1]
  Ki: 290 nM
[2]
  ED50: 33 mg/kg
[3]
  ED50: > 100 mg/kg
[4]
  Ki: 79 nM

## OC[C@H]1O[C@@H](n2cnc3c(NCCCc4ccccc4)ncnc32)[C@H](O)[C@@H]1O
[1]
  Ki: 420 nM
[2]
  ED50: 19 mg/kg
[3]
  ED50: > 100 mg/kg
[4]
  Ki: 23 nM

## C[C@@H](Cc1ccccc1)Nc1ncnc2c1ncn2[C@@H]1OC(CO)[C@@H](O)[C@H]1O (single isomer, unassigned)
[2]
  ED50: 16 mg/kg
[3]
  ED50: 75 mg/kg

## OC[C@H]1OC(n2cnc3c(NCCCC(c4ccccc4)c4ccccc4)ncnc32)[C@H](O)[C@@H]1O (stereo partly specified)
[1]
  Ki: 4700 nM
[2]
  ED50: 32 mg/kg
[3]
  ED50: > 100 mg/kg
[4]
  Ki: 290 nM

## O=C(CCCN1CCC(O)(c2ccc(Cl)cc2)CC1)c1ccc(F)cc1 [HALOPERIDOL]
[5]
  ED50: 0.24 mg/kg
[6]
  ED50: 0.3 mg/kg
[2]
  ED50: 0.27 mg/kg
[7]
  ED50: > 1 mg/kg
[3]
  ED50: 12 mg/kg

## CC(CNc1ncnc2c1ncn2[C@@H]1O[C@H](CO)[C@@H](O)[C@H]1O)c1ccccc1 (mixture of isomers)
[1]
  Ki: 98 nM
[2]
  ED50: 0.5 mg/kg
[3]
  ED50: 7 mg/kg
[4]
  Ki: 2.4 nM

## C[C@H](Cc1ccccc1)Nc1ncnc2c1ncn2[C@@H]1O[C@H](CO)[C@@H](O)[C@H]1O [(R)-PIA]
[2]
  ED50: 0.8 mg/kg
[3]
  ED50: 2 mg/kg

## OC[C@H]1O[C@@H](n2cnc3c(NCCc4ccccc4)ncnc32)[C@H](O)[C@@H]1O
[2]
  ED50: 15 mg/kg
[3]
  ED50: > 100 mg/kg
[4]
  Ki: 12.7 nM

## OC[C@H]1O[C@@H](n2cnc3c(NCCCCc4ccccc4)ncnc32)[C@H](O)[C@@H]1O
[1]
  Ki: 1230 nM
[2]
  ED50: 32 mg/kg
[3]
  ED50: > 100 mg/kg
[4]
  Ki: 15.9 nM
